Test results taken from patent US20200061076A1, “METHODS OF TREATING LEUKODYSTROPHIES” (Ramot at Tel-Aviv University Ltd., priority 2017, published 2020).

Experiments:
primary OPC = assay: OPC differentiation assay (IncuCyte); format: cell-based, mouse; settings: 1 μM, 60 hours in differentiation medium (FIG. 13)
Method: Images were taken every 10 hours followed by analysis using IncuCyte ZOOM software (2016B).
5,000 cells OPCs per well were seeded in a 96 wells plate and maintained overnight in proliferation media (Emery et al. 2013). […] OPC differentiation was monitored by continuous imaging. Images taken at ten hours intervals were analyzed by IncuCyte NeuroTrack software for the following parameters: Neurite length, Neurite branch points, Cell body clusters and Cell body cluster area. Statistics—For all comparisons, Student's t-test was performed using ≥3 independent biological repeats for each group (methodological selection of sample size was not applied).

Mut MEFs [1] = assay: JC1 staining of intact and damaged mitochondria (mitochondrial membrane potential); format: cell-based, mouse
Method: Mut MEFs were treated or not for 6 hours with the indicated concentrations of p8G5 (blue), pre084 (purple), or NE-100 (yellow), washed and stained with Hoechst and JC1 for 30 minutes followed by image acquisition using In-Cell-Analyzer-2000. Shown is the % of red/green JC1 integrated intensity per cell relative to that in untreated WT cells of 2-4 independent experiments.
Following, the cells were washed, stained with Hoechst and JC-1 fluorescent dyes for 30 minutes, and subjected to image acquisition using In-Cell-Analyzer-2000. Shown is cellular content of damaged mitochondria (JC1 green channel, red bars), intact mitochondria (JC1 red channel, green bars) and damaged to intact mitochondria ratio (blue bars). Values of control (vehicle treated) cells was set to 100%.
Mut MEFs were treated with the indicated compounds at 10 μM for 24 hours followed by staining with fluorogenic dyes and image-based single-cell analysis. Shown is average effect on ROS level from at least 3-independent experiments ±SEM. […] Mut MEFs were incubated or not for 24 hours with 10 μM of the indicated compound, washed and stained with Crystal Violet. […] Mut MEFs were incubated or not for 24 hours with 10 μM of the indicated compound, washed and stained with JC1 and Hoechst followed by image-based single-cell analysis. Values of untreated cells were set as 100%. Shown is average of at least 3 independent experiments for each parameter compared to its matching control ±SEM. * p<0.05. Putative targets are indicated.
Mut MEFs were incubated or not for 24 hours with 10 μM of the indicated compounds, washed and stained with Hoechst and JC1 followed by image-based single-cell analysis. […] Mut MEFs were incubated or not with the indicated concentrations of the indicated compounds for 2 hours followed by addition of 50 ng/ml Tunicamycin (Tun) for additional 22 hours, stained with Crystal Violet followed by measurement of absorbance at 570 nm.
MEFs were seeded on 1% gelatin-coated 96-wells plate at a density of 5000 cells per well. 24 hours post-plating the cells were incubated with the tested compounds for additional 24 hours. Several DMSO-treated cells (control) were included in each plate at different locations. Following, the cells were stained by addition of fluorogenic dyes for further 30 minutes incubation at 37° C. […] CellROX was used together with Hoechst and CFSE; JC1 was used together with Hoechst. Cells were washed with Hank's balanced salt solution (HBSS) which was used for images acquisition using IN Cell Analyzer 2000 (GE Healthcare, Pitsburgh, Pa., USA). IN Cell Developer Toolbox 1.9.1 software (GE Healthcare) was used for analysis which included cells segmentation using Hoechst and/or CFSE signals. For analysis of JC1 staining, integrated intensity of green and red emissions were used for detection of damaged and intact mitochondria, respectively.

Mut MEFs [2] = assay: Cell survival assay, Crystal violet staining, Mut MEFs; format: cell-based, mouse; settings: for Survival (%) ± SEM Mut MEFs: 24 hours, untreated cells set to 100%
Method: (§1) Cells were seeded on 96-wells plate at a density of 5000 cells per well. Astrocytes were seeded following coating with 0.001% PDL.

WT astrocytes = assay: Cell survival assay, Crystal violet staining, WT astrocytes; format: cell-based, mouse; settings: 24 hours, untreated cells set to 100%
Method: as §1

Mut MEFs [3] = assay: Oxygen consumption (Seahorse XF Cell Mito Stress Test), MEFs; format: cell-based, mouse; settings: for basal respiration and ATP-linked respiration per cell (OCR): 6 hours, normalized to biomass (FIGS. 7A-B); for maximal respiration rate per mitochondrial content: 1 μM, 6 hours (FIG. 8C); for basal and ATP-linked respiration rate per mitochondrial DNA content: 6 hours (FIGS. 8A-B)
Method: Mut MEFs were treated or not for 6 hours with the indicated concentrations of the indicated Sig-1R binders. Oxygen consumption was measured in a XF96 Extracellular Flux Analyzer using the Seahorse XF Cell Mito Stress Test Kit. The Basal respiration (FIG. 7A) and ATP-linked respiration (FIG. 7B) data were normalized to biomass as determined by Crystal Violet staining.
Mut MEFs were treated or not for 6 hours with the indicated concentrations of the indicated Sig-1R binders. Oxygen consumption was measured in a XF96 Extracellular Flux Analyzer using the Seahorse XF Cell Mito Stress Test Kit. The Basal respiration (FIG. 8A), ATP-linked respiration (FIG. 8B) and maximal respiration (FIG. 8C) data was normalized to mtDNA content as detailed in FIG. 2.
(§2) The data were normalized to cell number, obtained by Crystal Violet staining, or to mtDNA content.

Mut MEFs [4] = assay: TMRE staining, flow cytometry; format: cell-based, mouse
Method: Mut MEFs were treated or untreated with the indicated concentrations of the indicated Sig-1R binders for 6 hours, stained by TMRE for 30 minutes and analyzed by flow cytometry. Shown are flow cytometry histograms and bar graphs representing % mean TMRE fluorescence intensity relative to non-treated WT cells of a representative experiment.
MEFs were seeded at a density of 4×10^4 cells per well in a 24-wells plate. 24 hours post-plating the cells were incubated with the tested compounds for additional 6 hours followed by staining with 200 nM Tetra-Methyl-Rhodamine-Ethyl esterperchlorate (TMRE) (Abcam) for 30 minutes at 37° C. Cells were removed by trypsinyzation, washed and resuspended in PBS. 5-10×10^3 cells were analyzed by Stratedigm S1000EXi cell sorter and FlowJo software (FLOWJO, LLC, Ashland, Oreg., USA).

Mut MEFs [5] = assay: mtDNA quantification (qPCR of mitochondrial 12S rRNA and nuclear 18S rRNA genes), MEFs; format: cell-based, mouse
Method: DNA extracted from WT and Mut MEFs that were treated or not for 6 hours with 0.1 μM, 1 μM or 10 μM of p8G5 (blue), Pre084 (known SIG-1R agonist, purple), pridopidine (known SIG-1R agonists, green) or NE-100 (known SIG-1R antagonist, yellow) was subjected to qPCR analysis of mitochondrial 12S rRNA and nuclear 18S rRNA genes.

Mut astrocytes [6] = assay: Cell survival assay, Crystal violet staining, Mut astrocytes; format: cell-based, mouse; settings: 24 hours, untreated cells set to 100%
Method: as §1

Mut MEFs [7] = assay: Survival under Tunicamycin-induced ER stress, Crystal Violet, MEFs; settings: 30 μM, 24 hours, Tunicamycin during the last 22 hours (FIGS. 9 and 18)
Method: Mut MEFs were treated or not for 24 hours with the indicated concentrations of the indicated Sig-1R binders in the presence of 0.1 μg/ml Tunicamycin (Tun) during the last 22 hours. Following, the cells were washed, fixated and stained with Crystal Violet (CV) followed by measurement of absorbance at 570 nm. Shown is average % of CV staining relative to cells not treated with tunicamycin nor Sig-1R binder ±SEM of 3 independent experiments. *p<0.03.
Following, the cells were washed, fixated and stained with Crystal Violet and absorbance at 570 nm was measured. Data is presented relative to cells of the corresponding genotype not treated with p8G5 nor Tunicamycin. Shown is average % of CV staining ±SEM of 3 independent experiments.
Mut MEFs were treated or not for 24 hours with 10, 20 or 30 μM of the indicated Sig-1R binders in the presence of 50 ng/ml Tunicamycin (Tun) during the last 22 hours. Following, the cells were washed, fixated and stained with Crystal Violet (CV) followed by measurement of absorbance at 570 nm. Shown is % of CV staining relative to cells not treated with tunicamycin nor Sig-1R binder ±SEM of 3 independent experiments, *p<0.05.
Mut MEFs were incubated or not with the indicated concentrations of the indicated compounds for 2 hours followed by addition of 50 ng/ml Tunicamycin (Tun) for additional 22 hours, stained with Crystal Violet followed by measurement of absorbance at 570 nm. Shown is average normalized to Tun-treated cells without any compound ±SEM of 3 independent experiments. * not significant; ** p<0.02; *** all values p<0.04.

Mut primary astrocytes [8] = assay: Oxygen consumption (OCR), primary astrocytes; format: cell-based, mouse; settings: 1 or 10 μm, 6 hours, normalized to cell number (FIGS. 17B-C)
Method: (§3) Shown is average relative quantity (RQ) of 2-6 independent experiments normalized to their untreated controls ±SEM. […] Values of ATP-linked respiration (FIG. 17B) and maximal respiration (FIG. 17C) were analyzed and normalized to cell number.
as §2

Mut primary astrocytes [9] = assay: mtDNA quantification, primary astrocytes; format: cell-based, mouse; settings: 1 or 10 μm, 6 hours (FIG. 17A)
Method: as §3

Mut astrocytes [10] = assay: Survival under Tunicamycin-induced ER stress, Crystal Violet, astrocytes; format: cell-based, mouse; settings: 30 μM, 50 ng/ml Tunicamycin last 22 hours (FIG. 19)
Method: WT and Mut astrocytes were treated or not for 24 hours with 20, 30 or 50 μM of the indicated Sig-1R binders in the presence of 50 ng/ml Tunicamycin (Tun) during the last 22 hours. Following, the cells were washed, fixated and stained with Crystal Violet (CV) followed by measurement of absorbance at 570 nm. Shown is % of CV staining relative to cells not treated with tunicamycin nor Sig-1R binder ±SEM of 3 independent experiments, *p<0.05.
as §1

[11] = Mutant MEFs, 1 μM, 24 hours (FIG. 12)

SMILES	Survival (%) ± SEM Mut MEFs (Mut MEFs [2]; 0.1 μM) [%]	Survival (%) ± SEM Mut MEFs (Mut MEFs [2]; 1 μM) [%]	Survival (%) ± SEM Mut MEFs (Mut MEFs [2]; 10 μM) [%]	Survival (%) ± SEM WT astrocytes (WT astrocytes; 1 μM) [%]	Survival (%) ± SEM WT astrocytes (WT astrocytes; 10 μM) [%]	basal respiration and ATP-linked respiration per cell (OCR) (Mut MEFs [3])	Survival (%) ± SEM Mut astrocytes (Mut astrocytes [6]; 1 μM) [%]	Survival (%) ± SEM Mut astrocytes (Mut astrocytes [6]; 10 μM) [%]	Survival (%) ± SEM Mut astrocytes (Mut astrocytes [6]; 30 μM) [%]	maximal respiration rate per mitochondrial content (Mut MEFs [3])	basal and ATP-linked respiration rate per mitochondrial DNA content (Mut MEFs [3])	ATP-linked and maximal respiration in mutant astrocytes (Mut primary astrocytes [8])	mitochondrial content per cell in astrocytes (Mut primary astrocytes [9])	further results
CC1=C2C[C@H]3[C@@H](CC=C4C[C@@H](O)CC[C@@]43C)[C@@H]2CC[C@]12O[C@@H]1C[C@H](C)CN[C@H]1[C@H]2C [Cyclopamine, reference compound]	92 ± 2.5	95 ± 4.1	79 ± 1.4	–	–	–	–	–	–	–	–	–	–	neurite length, neurite branch points, cell body clusters and cell body cluster area (primary OPC): positive effect; content of damaged mitochondria (JC1 green channel) (Mut MEFs [1]; [11]): decreased content of damaged mitochondria; content of intact mitochondria (JC1 red channel) (Mut MEFs [1]; [11]): increased content of intact mitochondria
CCCN(CCC)CCc1ccc(OC)c(OCCc2ccccc2)c1 [NE100]	99 ± 2.1	98 ± 2.2	88 ± 3.5	86 ± 1.1	79 ± 2.2	negative effect	94 ± 4.7	82 ± 4.3	65 ± 2.2	–	–	–	–	Survival (%) ± SEM WT astrocytes (WT astrocytes; 0.1 μM): 98 ± 1.8%; TMRE staining (mitochondrial membrane potential) (Mut MEFs [4]; all concentrations, 6 hours (FIG. 5A)): negative effect on TMRE staining; mitochondrial content in Mut MEFs (Mut MEFs [5]; 0.1 μM, 1 μM or 10 μM, 6 hours (FIG. 2)): increased mitochondrial content in a dose dependent manner
O=C(OCCN1CCOCC1)C1(c2ccccc2)CCCCC1 [pre084, 2-morpholin-4-ylethyl 1-phenylcyclohexane-1-carboxylate]	100 ± 2.1	101 ± 3.5	99 ± 1.5	114 ± 7.9	95 ± 2.3	no effect	97 ± 0.5	93 ± 5.1	76 ± 4.9	increased the maximal respiration capacity per mitochondria to the level of untreated WT cells	statistically significant increase	increased both ATP-linked and maximal respiration	no effect on mitochondrial content per cell	survival of Mut MEFs under Tunicamycin ER-stress (Mut MEFs [7]): able to rescue mutant MEFs; Survival (%) ± SEM WT astrocytes (WT astrocytes; 30 μM): 82 ± 1.9%; red/green JC1 signal (mitochondria with high to low membrane potential) (Mut MEFs [1]; Mut MEFs, 1 μM and 10 μM, 6 hours (FIG. 6)): increased the ratio between the content of mitochondria with high to low membrane potential; TMRE staining (mitochondrial membrane potential) (Mut MEFs [4]; 1 μM, 6 hours (FIGS. 5A-B)): increased TMRE staining to a level above that of untreated WT cells; Survival (%) ± SEM Mut MEFs (Mut MEFs [2]; 20 μM): 97 ± 2.1%; Survival (%) ± SEM Mut MEFs (Mut MEFs [2]; 30 μM): 105 ± 1.9%; Survival (%) ± SEM Mut MEFs (Mut MEFs [2]; 50 μM): 80 ± 2.8%; Survival (%) ± SEM Mut MEFs (Mut MEFs [2]; 100 μM): 57 ± 2.2%; effect on survival of Mut cells (Mut MEFs [2]; as high as 30 μM (FIG. 4, Table 3)): did not have any negative effect on the survival; mitochondrial content in Mut MEFs (Mut MEFs [5]; 0.1 μM-1 μM, 6 hours incubation (FIG. 2)): lowered the abnormal high mitochondrial content
CCCN1CCC(c2cccc(S(C)(=O)=O)c2)CC1 [pridopidine, 4-(3-(Methylsulfonyl)phenyl)-1-propylpiperidine]	–	–	–	–	–	–	–	–	–	increased the maximal respiration capacity per mitochondria to the level of untreated WT cells	beneficial effect	increased both ATP-linked and maximal respiration	no effect on mitochondrial content per cell	TMRE staining (mitochondrial membrane potential) (Mut MEFs [4]; 10 μM, 6 hours (FIGS. 5A-B)): increased TMRE staining to a level above that of untreated WT cells; survival rate of Mut astrocytes under ER-stress conditions (Mut astrocytes [10]): increased the survival rate; mitochondrial content in Mut MEFs (Mut MEFs [5]; 1 μM-10 μM, 6 hours incubation (FIG. 2)): lowered the abnormal high mitochondrial content
